Test results: ChEMBL document CHEMBL5465560, “Selectivity Literature for EUbOPEN Chemogenomic Library” (2024)

Legend:
[1] = target: Casein kinase I isoform gamma-1 (Homo sapiens) (UniProt Q9HCP0); experiment: Selectivity interaction (Kinase panel (KiNativ target engagement assay in Jurkat cells)) EUB0001635a CSNK1G1; type: cell-based; conditions: at 1 µM
[2] = target: Vascular endothelial growth factor receptor 2 (Homo sapiens, UniProt P35968); experiment: Selectivity interaction (KinomeScan (DiscoverX)) EUB0000045b KDR
[3] = target: T1, Interleukin-1 receptor-associated kinase 3 (Homo sapiens) (UniProt Q9Y616); experiment: Selectivity interaction (KinomeScan (DiscoverX)) EUB0001079a IRAK3; conditions: at 1 µM
T1 sequence (whole entry): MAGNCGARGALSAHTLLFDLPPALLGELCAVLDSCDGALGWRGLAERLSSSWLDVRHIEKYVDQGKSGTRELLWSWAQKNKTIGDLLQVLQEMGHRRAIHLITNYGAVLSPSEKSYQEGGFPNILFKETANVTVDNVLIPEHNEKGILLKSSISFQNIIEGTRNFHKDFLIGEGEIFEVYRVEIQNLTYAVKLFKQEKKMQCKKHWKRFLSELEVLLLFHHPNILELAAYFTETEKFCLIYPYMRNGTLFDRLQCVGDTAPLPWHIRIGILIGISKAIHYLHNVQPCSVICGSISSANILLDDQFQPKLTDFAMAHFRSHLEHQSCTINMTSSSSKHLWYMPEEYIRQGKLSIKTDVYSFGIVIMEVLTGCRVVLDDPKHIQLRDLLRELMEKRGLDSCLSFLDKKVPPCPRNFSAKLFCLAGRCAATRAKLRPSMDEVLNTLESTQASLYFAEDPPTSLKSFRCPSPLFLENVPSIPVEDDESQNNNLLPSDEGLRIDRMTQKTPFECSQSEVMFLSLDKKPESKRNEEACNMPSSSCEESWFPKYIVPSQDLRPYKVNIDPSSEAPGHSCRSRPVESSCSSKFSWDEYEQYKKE

[4] = target: MAP/microtubule affinity-regulating kinase 3 (Homo sapiens) (UniProt P27448); conditions: at 10 µM
[5] = target: Ribosomal protein S6 kinase alpha-2 (Homo sapiens) (UniProt Q15349); conditions: at 10 µM
[6] = target: Serine/threonine-protein kinase SIK3 (Homo sapiens) (UniProt Q9Y2K2); conditions: at 10 µM
[7] = target: T2, Ribosomal protein S6 kinase alpha-1 (Homo sapiens, UniProt Q15418); experiment: Selectivity interaction (Kinase screening (Nanosyn)) EUB0000604a RPS6KA1
[8] = target: Serine/threonine-protein kinase SIK1 (Homo sapiens) (UniProt P57059); experiment: Selectivity interaction (KinomeScan (DiscoverX)) EUB0001049a SIK1; conditions: at 1 µM
[9] = target: T3, Mitogen-activated protein kinase kinase kinase 12 (Homo sapiens) (UniProt Q12852); experiment: Selectivity interaction (KinomeScan (DiscoverX)) EUB0001619a MAP3K12; conditions: at 1 µM
T3 sequence (whole entry): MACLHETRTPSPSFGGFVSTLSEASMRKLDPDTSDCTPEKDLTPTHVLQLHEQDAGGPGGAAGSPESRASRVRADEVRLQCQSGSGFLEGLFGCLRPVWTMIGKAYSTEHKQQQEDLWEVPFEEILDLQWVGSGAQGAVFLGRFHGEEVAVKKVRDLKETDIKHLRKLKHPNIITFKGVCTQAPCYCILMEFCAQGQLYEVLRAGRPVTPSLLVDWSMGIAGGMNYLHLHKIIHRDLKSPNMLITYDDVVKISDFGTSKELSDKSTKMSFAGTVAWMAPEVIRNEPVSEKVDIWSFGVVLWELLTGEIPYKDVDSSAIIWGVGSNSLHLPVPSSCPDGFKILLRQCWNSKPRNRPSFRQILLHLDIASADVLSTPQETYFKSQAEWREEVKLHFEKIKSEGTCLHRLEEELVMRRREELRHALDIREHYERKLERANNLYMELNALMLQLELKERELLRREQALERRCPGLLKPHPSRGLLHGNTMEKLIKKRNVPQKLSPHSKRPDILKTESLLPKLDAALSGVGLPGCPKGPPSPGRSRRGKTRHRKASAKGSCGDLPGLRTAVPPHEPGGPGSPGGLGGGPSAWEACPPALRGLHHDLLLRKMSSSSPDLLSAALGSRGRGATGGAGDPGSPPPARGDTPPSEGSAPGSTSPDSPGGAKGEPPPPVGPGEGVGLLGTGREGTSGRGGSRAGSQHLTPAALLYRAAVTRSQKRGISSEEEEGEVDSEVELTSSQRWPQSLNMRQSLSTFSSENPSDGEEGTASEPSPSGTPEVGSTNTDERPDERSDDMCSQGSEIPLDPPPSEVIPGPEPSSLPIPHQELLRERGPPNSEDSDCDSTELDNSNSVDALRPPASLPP

[10] = target: T2, Ribosomal protein S6 kinase alpha-1; experiment: Selectivity interaction (KinomeScan (DiscoverX)) EUB0000607a RPS6KA1; conditions: at 10 µM
[11] = target: Serine/threonine-protein kinase VRK2 (Homo sapiens) (UniProt Q86Y07); experiment: Selectivity interaction (KinomeScan (DiscoverX)) EUB0000618a VRK2; conditions: at 10 µM
[12] = target: Glycogen synthase kinase-3 beta (Homo sapiens, UniProt P49841); experiment: Selectivity interaction (ActivX KiNativ screen (kinase selectivity in THP-1 cell lysates)) EUB0000639a GSK3B; type: subcellular; conditions: lysate
[13] = target: Serine/threonine-protein kinase MARK2 (Homo sapiens) (UniProt Q7KZI7); experiment: Selectivity interaction (ActivX KiNativ screen (kinase selectivity in THP-1 cell lysates)) EUB0000639a MARK2; type: subcellular; conditions: lysate, at 5 µM
[14] = target: 5'-AMP-activated protein kinase catalytic subunit alpha-2 (Homo sapiens) (UniProt P54646); experiment: Selectivity interaction (ActivX KiNativ screen (kinase selectivity in THP-1 cell lysates)) EUB0000639a PRKAA2; type: subcellular; conditions: lysate, at 5 µM
[15] = target: Serine/threonine-protein kinase SMG1 (Homo sapiens) (UniProt Q96Q15); experiment: Selectivity interaction (ActivX KiNativ screen (kinase selectivity in THP-1 cell lysates)) EUB0000639a SMG1; type: subcellular; conditions: lysate
[16] = target: Mitogen-activated protein kinase kinase kinase 20 (Homo sapiens) (UniProt Q9NYL2); experiment: Selectivity interaction (Kinase panel (Invitrogen)) EUB0000639a MAP3K20; conditions: at 200 nM
[17] = target: Phosphatidylinositol 4-kinase beta (Homo sapiens, UniProt Q9UBF8); experiment: Selectivity interaction (Ambit KINOMEscan and KiNATiv profiling in Jurkat cells) EUB0000090b PI4KB; type: cell-based; conditions: at 1 µM

Sequence of Glycogen synthase kinase-3 beta (P49841 whole entry, looked up): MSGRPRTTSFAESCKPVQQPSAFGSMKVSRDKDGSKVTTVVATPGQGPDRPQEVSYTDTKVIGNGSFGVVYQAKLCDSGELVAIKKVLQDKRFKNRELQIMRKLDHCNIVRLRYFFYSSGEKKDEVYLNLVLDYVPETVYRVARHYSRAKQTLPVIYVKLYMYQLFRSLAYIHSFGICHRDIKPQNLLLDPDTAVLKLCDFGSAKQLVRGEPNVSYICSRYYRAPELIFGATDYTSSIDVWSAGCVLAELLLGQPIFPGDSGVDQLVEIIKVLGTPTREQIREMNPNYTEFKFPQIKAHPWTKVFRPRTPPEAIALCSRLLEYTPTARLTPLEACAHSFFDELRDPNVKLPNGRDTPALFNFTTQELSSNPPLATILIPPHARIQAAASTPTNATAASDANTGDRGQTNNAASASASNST
Sequence of Serine/threonine-protein kinase SMG1 (Homo sapiens) (Q96Q15 whole entry): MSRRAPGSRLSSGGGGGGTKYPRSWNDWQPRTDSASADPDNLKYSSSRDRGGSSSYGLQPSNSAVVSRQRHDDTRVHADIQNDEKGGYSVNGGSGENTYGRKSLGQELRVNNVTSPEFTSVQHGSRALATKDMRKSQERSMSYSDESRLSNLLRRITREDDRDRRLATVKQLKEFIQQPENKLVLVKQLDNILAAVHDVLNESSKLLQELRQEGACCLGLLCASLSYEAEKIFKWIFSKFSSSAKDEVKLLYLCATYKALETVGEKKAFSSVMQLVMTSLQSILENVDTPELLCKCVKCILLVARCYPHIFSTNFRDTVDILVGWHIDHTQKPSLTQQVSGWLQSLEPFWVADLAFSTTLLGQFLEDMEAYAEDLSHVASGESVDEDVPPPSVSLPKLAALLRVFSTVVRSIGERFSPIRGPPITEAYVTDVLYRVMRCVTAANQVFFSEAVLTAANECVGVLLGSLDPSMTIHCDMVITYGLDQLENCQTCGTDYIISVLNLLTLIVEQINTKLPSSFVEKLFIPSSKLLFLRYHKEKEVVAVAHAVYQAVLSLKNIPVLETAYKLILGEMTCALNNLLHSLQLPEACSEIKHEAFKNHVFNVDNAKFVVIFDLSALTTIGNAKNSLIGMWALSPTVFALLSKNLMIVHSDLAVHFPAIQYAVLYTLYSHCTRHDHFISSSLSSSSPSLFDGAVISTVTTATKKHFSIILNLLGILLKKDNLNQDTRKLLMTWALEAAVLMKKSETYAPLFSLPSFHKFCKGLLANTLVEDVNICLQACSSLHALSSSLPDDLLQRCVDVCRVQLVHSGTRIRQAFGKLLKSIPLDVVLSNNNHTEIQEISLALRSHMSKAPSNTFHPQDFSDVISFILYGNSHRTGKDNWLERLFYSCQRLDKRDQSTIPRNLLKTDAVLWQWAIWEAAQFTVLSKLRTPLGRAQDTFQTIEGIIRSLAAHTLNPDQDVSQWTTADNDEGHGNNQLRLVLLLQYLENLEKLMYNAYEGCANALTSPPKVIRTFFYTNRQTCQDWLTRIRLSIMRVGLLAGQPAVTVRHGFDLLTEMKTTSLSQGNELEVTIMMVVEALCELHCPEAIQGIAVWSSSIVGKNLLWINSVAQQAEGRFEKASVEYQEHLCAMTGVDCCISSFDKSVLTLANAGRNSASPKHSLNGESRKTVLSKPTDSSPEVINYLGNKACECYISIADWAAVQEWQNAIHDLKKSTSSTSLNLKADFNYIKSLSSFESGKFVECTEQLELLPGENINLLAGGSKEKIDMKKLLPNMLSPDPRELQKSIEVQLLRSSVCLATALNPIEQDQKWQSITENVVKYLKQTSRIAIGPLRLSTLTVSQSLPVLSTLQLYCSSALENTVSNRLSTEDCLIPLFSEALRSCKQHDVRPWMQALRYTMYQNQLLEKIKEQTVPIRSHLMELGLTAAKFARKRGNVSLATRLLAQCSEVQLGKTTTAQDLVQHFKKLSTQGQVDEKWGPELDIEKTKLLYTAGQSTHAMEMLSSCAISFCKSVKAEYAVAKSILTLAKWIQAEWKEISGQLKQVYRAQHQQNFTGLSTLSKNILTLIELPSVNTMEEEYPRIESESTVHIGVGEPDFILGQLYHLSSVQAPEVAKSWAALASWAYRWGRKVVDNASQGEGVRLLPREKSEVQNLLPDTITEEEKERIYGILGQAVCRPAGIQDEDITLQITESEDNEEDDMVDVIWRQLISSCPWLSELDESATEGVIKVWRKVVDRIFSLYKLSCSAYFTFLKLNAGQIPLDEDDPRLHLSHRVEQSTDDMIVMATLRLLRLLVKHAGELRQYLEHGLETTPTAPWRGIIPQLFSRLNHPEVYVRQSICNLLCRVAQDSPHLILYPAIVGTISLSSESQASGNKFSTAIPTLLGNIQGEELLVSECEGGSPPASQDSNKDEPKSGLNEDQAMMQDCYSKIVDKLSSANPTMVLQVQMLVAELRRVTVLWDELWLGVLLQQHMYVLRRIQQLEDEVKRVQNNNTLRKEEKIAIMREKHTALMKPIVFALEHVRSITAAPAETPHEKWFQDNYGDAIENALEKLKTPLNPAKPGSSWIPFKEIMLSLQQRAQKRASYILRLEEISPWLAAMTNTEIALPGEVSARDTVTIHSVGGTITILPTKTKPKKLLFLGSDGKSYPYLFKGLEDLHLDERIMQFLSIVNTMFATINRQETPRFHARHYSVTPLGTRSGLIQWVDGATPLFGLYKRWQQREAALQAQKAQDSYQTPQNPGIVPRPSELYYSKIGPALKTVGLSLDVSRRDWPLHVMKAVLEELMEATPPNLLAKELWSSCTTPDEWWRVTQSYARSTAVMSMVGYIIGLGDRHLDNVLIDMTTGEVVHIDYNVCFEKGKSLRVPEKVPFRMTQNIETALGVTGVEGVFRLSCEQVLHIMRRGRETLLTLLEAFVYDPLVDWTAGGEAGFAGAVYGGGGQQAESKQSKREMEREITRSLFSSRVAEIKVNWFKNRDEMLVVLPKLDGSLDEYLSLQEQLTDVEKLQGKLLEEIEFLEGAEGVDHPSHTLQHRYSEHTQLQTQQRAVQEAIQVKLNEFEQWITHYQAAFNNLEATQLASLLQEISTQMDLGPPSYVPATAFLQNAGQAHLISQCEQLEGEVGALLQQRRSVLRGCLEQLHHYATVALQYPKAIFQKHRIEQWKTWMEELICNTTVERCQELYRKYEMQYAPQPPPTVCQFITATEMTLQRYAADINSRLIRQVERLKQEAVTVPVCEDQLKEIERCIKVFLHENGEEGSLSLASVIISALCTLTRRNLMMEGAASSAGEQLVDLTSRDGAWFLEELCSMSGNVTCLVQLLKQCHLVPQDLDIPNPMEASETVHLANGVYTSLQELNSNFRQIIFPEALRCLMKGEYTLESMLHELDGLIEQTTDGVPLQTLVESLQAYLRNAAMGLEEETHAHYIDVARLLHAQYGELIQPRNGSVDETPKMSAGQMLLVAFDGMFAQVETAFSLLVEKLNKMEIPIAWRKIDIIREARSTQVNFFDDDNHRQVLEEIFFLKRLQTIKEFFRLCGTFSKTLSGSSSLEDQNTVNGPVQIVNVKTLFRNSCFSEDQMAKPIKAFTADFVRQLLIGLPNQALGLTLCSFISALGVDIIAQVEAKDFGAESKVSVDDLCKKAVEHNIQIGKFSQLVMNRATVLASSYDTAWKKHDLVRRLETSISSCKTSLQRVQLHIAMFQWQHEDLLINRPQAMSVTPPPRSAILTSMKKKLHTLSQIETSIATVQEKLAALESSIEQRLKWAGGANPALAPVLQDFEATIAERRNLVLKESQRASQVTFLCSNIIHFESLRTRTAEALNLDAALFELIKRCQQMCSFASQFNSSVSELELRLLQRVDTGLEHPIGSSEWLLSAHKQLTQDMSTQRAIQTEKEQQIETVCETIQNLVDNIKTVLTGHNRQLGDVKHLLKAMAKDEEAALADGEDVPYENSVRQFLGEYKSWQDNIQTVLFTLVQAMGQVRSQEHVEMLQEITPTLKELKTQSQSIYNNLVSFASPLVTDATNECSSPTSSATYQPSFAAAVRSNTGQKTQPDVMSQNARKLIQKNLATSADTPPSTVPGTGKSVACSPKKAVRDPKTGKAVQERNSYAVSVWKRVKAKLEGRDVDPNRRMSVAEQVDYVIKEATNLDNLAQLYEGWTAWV
T2 sequence (Q15418 whole entry): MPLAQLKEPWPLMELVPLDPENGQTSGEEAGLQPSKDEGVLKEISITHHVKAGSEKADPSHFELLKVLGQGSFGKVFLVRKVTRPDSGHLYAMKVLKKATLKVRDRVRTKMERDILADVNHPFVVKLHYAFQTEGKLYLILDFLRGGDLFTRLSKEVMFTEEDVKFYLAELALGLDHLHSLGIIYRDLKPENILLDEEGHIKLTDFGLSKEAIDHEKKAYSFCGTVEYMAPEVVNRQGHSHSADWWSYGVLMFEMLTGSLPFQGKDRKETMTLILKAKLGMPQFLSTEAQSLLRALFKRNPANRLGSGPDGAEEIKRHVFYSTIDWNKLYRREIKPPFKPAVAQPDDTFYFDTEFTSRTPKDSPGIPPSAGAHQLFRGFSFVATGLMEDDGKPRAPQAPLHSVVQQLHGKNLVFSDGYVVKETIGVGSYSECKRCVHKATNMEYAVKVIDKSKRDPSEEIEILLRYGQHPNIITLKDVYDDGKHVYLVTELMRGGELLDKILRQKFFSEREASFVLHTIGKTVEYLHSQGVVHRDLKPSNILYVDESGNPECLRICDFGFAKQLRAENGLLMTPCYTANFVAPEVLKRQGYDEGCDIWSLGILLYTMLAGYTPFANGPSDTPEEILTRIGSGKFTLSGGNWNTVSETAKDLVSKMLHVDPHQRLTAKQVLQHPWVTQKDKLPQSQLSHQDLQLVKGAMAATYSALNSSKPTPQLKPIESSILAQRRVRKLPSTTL

C=CC(=O)Nc1ccc(C(=O)Nc2[nH]nc3c2CN(C(=O)N[C@H](CN(C)C)c2ccccc2)C3(C)C)cc1
% of engagement [1]: -7.7%

C=CC(=O)Nc1cc(-n2c(=O)ccc3cnc4ccc(-c5ccc(NS(C)(=O)=O)cc5)cc4c32)ccc1C
% of control ([2]; at 1 µM): 97% | % of control ([2]; at 10 µM): 100%

Nc1cnc(N2CCc3cc(S(=O)(=O)Nc4c(F)cc(Cl)cc4F)cc(N4CCCC4=O)c32)nc1 [TP-020n]
% of control [3]: 89%

Cc1cc([C@@H](C)Nc2ccccc2C(=O)O)c2nc(N3CCOCC3)cc(=O)n2c1 [AZD-6482]
% of control [4]: 89% | % of control [5]: 97% | % of control [6]: 95%

Cc1cnc(Nc2ccc(F)cc2Cl)nc1-c1c[nH]c(C(=O)N[C@H](CO)c2cccc(Cl)c2)c1
% of inhibition [7]: 4%

COc1cc(Nc2nc(C)cc(-c3cnn4nc(OC)ccc34)n2)cc(C(F)(F)F)c1
% of control [8]: 93%

N#Cc1cccc(-c2c[nH]c3ncnc(N4CCOCC4)c23)c1
% of control [9]: 96%

CNC(=O)Nc1ccc(-c2nc(N3CC4CCC(C3)O4)c3cnn(C4CCC5(CC4)OCCO5)c3n2)cc1
% of control [10]: 91%

O[C@H]1CC[C@H](Nc2ncc3nc(Nc4c(F)cc(F)cc4F)n([C@H]4CCOC4)c3n2)CC1
% of control [11]: 100%

CC[C@@H]1[C@H](F)C(=O)N[C@@H]1COc1nccc2cc(C(N)=O)c(OC)cc12 [ZIMLOVISERTIB]
% of inhibition ([12]; at 0.01 µM): -3.7% | % of inhibition ([12]; at 0.04 µM): 1.4% | % of inhibition ([12]; at 0.2 µM): 2.2% | % of inhibition ([12]; at 1 µM): 2% | % of inhibition ([12]; at 5 µM): -4.4% | % of inhibition [13]: 51.5% | % of inhibition [14]: 18.6% | % of inhibition ([15]; at 0.01 µM): 7.7% | % of inhibition ([15]; at 0.04 µM): 1.9% | % of inhibition ([15]; at 0.2 µM): 6.9% | % of inhibition ([15]; at 1 µM): 6.1% | % of inhibition ([15]; at 5 µM): -13.6% | % of inhibition [16]: 1.12%

CN(C)C/C=C/C(=O)Nc1ccc(C(=O)N2CCCC(Nc3ncc(Cl)c(-c4c[nH]c5ccccc45)n3)C2)cc1 (stereo unspecified)
% of control [17]: 88%
